Test results reported in patent US10485236B2, “Triazole derivatives, intermediates thereof and their use as fungicides” (Bayer CropScience Aktiengesellschaft, priority 2015, dated 2019).
Marks after values point to notes of the source that are not given here.

system: not listed separately; assay: Measurement of LogP values by HPLC on reversed phase columns (EEC directive 79/831 Annex V.A8); format: physicochemical; settings: not given
Experimental: [table] If more than one Log P value is available within the same method, all the values are given and separated by “+”. Calibration was done with straight-chain alkan2-ones (with 3 to 16 carbon atoms) with known Log P values (measurement of Log P values using retention times with linear interpolation between successive alkanones). Lambda-max-values were determined using UV-spectra from 200 nm to 400 nm and the peak values of the chromatographic signals.

SMILES	LogP
O=C(Cn1cncn1)c1cnc(Oc2ccccc2)cc1Cl [VII.05]	2.20^[a]
O=C(Cn1cncn1)c1ncc(Oc2ccccc2)cc1Cl [VII.07]	2.45^[a]
Cc1cc(Cl)ccc1Oc1ccc(C(=O)Cn2cncn2)c(Cl)n1 [VII.10]	2.94^[a]
O=C(Cn1cncn1)c1ccc(Oc2cc(F)c(F)c(F)c2)nc1Cl [VII.15]	2.66^[a]
O=C(Cn1cncn1)c1ccc(Oc2ccc(Cl)cc2Cl)nc1Cl [VII.16]	3.02^[a]
O=C(Cn1cncn1)c1cnc(Oc2ccc(S(F)(F)(F)(F)F)cc2)cc1C(F)(F)F [VII.21]	3.35^[a]
O=C(Cn1cncn1)c1ncc(Oc2ccc(Cl)cc2)nc1Cl [VII.23]	2.54^[a]
O=C(Cn1cncn1)c1cnc(Oc2ccc(OC(F)(F)F)cc2)cc1C(F)(F)F [VII.26]	3.27^[a]
O=C(Cn1cncn1)c1cnc(Oc2ccc(Br)cc2)cc1C(F)(F)F [VII.27]	3.02^[a]
O=C(Cn1cncn1)c1cnc(Oc2ccc(C(F)(F)F)cc2)cc1C(F)(F)F [VII.28]	3.17^[a]
O=C(Cn1cncn1)c1cnc(Oc2ccc(Cl)cc2F)cc1C(F)(F)F [VII.30]	3.06^[a]
O=C(Cn1cncn1)c1ccc(Oc2ccc(S(F)(F)(F)(F)F)cc2)nc1C(F)(F)F [VII.31]	3.23^[a]
O=C(Cn1cncn1)c1ccc(Oc2ccc(C(F)(F)F)cc2)nc1C(F)(F)F [VII.32]	3.04^[a]
O=C(Cn1cncn1)c1ccc(Oc2c(F)cc(Cl)cc2F)nc1C(F)(F)F [VII.33]	2.96^[a]
O=C(Cn1cncn1)c1ccc(Oc2ccc(Cl)cc2F)nc1C(F)(F)F [VII.37]	2.74^[a]
O=C(Cn1cncn1)c1cnc(Oc2ccc(Cl)cc2)cc1Cl [VII.38]	2.60^[a]
O=C(Cn1cncn1)c1ccc(Oc2ccc(OC(F)(F)F)cc2)nc1C(F)(F)F [VII.39]	2.95^[a]
O=C(Cn1cncn1)c1cnc(Oc2ccc(C(F)(F)F)cc2)cc1Cl [VII.40]	2.92^[a]

The remaining lines, values ahead:

LogP	SMILES
3.33^[a]	O=C(Cn1cncn1)c1ccc(Oc2ccc(OC(F)(F)F)c(Cl)c2)nc1Cl [VII.04]
2.21^[a]	O=C(Cn1cncn1)c1ccc(Oc2ccccc2)nc1Cl [VII.06]
2.95^[a]	O=C(Cn1cncn1)c1ccc(Oc2ccc(OC(F)(F)F)cc2)nc1Cl [VII.08]
2.66^[a]	O=C(Cn1cncn1)c1ccc(Oc2ccc(Cl)cc2)nc1Cl [VII.09]
3.02^[a]	Cc1ccc(Oc2ccc(C(=O)Cn3cncn3)c(Cl)n2)cc1Cl [VII.11]
2.30^[a]	O=C(Cn1cncn1)c1ccc(Oc2ccc(F)cc2)nc1Cl [VII.12]
2.41^[a]	O=C(Cn1cncn1)c1ccc(Oc2ccc(F)cc2F)nc1Cl [VII.13]
2.28^[a]	O=C(Cn1cncn1)c1ccc(Oc2ccccc2F)nc1Cl [VII.14]
1.96^[a]	CC(=O)c1ccc(Oc2ccc(C(=O)Cn3cncn3)c(Cl)n2)cc1 [VII.17]
3.23^[a]	O=C(Cn1cncn1)c1ccc(Oc2ccc(Cl)cc2)nc1OC(F)(F)F [VII.18]
2.58^[a]	COc1ccc(Oc2ccc(C(=O)Cn3cncn3)c(Cl)n2)c(Cl)c1 [VII.19]
3.11^[a]	O=C(Cn1cncn1)c1ccc(Oc2ccc(S(F)(F)(F)(F)F)cc2)nc1Cl [VII.20]
2.39^[a]	O=C(Cn1cncn1)c1ccc(Oc2ccc(C(F)F)cc2)nc1Cl [VII.22]
2.99^[a]	O=C(Cn1cncn1)c1ccc(Oc2ccc(Br)cc2)nc1C(F)(F)F [VII.24]
2.50^[a]	O=C(Cn1cncn1)c1ccc(Oc2ccc(Cl)cc2)nc1F [VII.25]
2.80^[a]	O=C(Cn1cncn1)c1cnc(Oc2ccc(C(F)F)cc2)cc1C(F)(F)F [VII.29]
3.44^[a]	CC(C)c1ccc(Oc2ccc(C(=O)Cn3cncn3)c(C(F)(F)F)n2)cc1 [VII.34]
2.68^[a]	O=C(Cn1cncn1)c1ccc(Oc2ccc(Br)cc2)nc1C(F)F [VII.35]
2.51^[a]	O=C(Cn1cncn1)c1cnc(Oc2ccc(Cl)cc2)cc1C(F)F [VII.36]
2.61^[a]	O=C(Cn1cncn1)c1cnc(Oc2ccc(Br)cc2)cc1C(F)F [VII.41]
2.41^[a]	O=C(Cn1cncn1)c1ccc(Oc2ccc(C(F)F)cc2)nc1C(F)(F)F [VII.42]

same assay, conditions: reversed phase HPLC column, method [a]: LC-UV, acidic range, 0.1% formic acid in water and acetonitrile as eluent

SMILES	chromatographic logP
OC(Cn1cncn1)c1cnc(Oc2ccc(Cl)cc2)cc1C(F)(F)F (stereo not drawn) [I.04, 1-[6-(4-chlorophenoxy)-4-(trifluoromethyl)-3-pyridyl]-2-(1,2,4-triazol-1-yl)ethanol]	2.68

same assay, conditions: reversed phase HPLC column, method [a]; compounds of formula (VII), Table 4

SMILES	chromatographic logP
O=C(Cn1cncn1)c1cnc(Oc2ccc(Cl)cc2)cc1C(F)(F)F [VII.02, 1-[6-(4-chlorophenoxy)-4-(trifluoromethyl)-3-pyridyl]-2-(1,2,4-triazol-1-yl)ethanone]	2.92

system: Uromyces appendiculatus; assay: Example E: in vivo preventive test on Uromyces appendiculatus (bean rust); settings: 264 h, 500 ppm of active ingredient, bean plants, preventive spray, evaluated 11 days after inoculation, read-out: efficacy
Experimental: (§1) Example E: In Vivo Preventive Test on Uromyces appendiculatus (Bean Rust) [table] The active ingredients are made soluble and homogenized in a mixture of Dimethyl sulfoxide/Acetone//Tween® 80 and then diluted in water to the desired concentration. The young plants of bean are treated by spraying the active ingredient prepared as described above. Control plants are treated only with an aqueous solution of Acetone/Dimethyl sulfoxide/Tween® 80. After 24 hours, the plants are contaminated by spraying the leaves with an aqueous suspension of Uromyces appendiculatus spores. The contaminated bean plants are incubated for 24 hours at 20° C. and at 100% relative humidity and then for 10 days at 20° C. and at 70-80% relative humidity. The test is evaluated 11 days after the inoculation. 0% means an efficacy which corresponds to that of the control plants while an efficacy of 100% means that no disease is observed.

SMILES	pest or weed control at 500 ppm [%]
OC(Cn1cncn1)c1cnc(Oc2ccc(Cl)cc2)cc1C(F)(F)F (stereo not drawn) [I.04, 1-[6-(4-chlorophenoxy)-4-(trifluoromethyl)-3-pyridyl]-2-(1,2,4-triazol-1-yl)ethanol]	90 to 100
O=C(Cn1cncn1)c1cnc(Oc2ccc(Cl)cc2)cc1C(F)(F)F [VII.02, 1-[6-(4-chlorophenoxy)-4-(trifluoromethyl)-3-pyridyl]-2-(1,2,4-triazol-1-yl)ethanone]	80 to 89

system: Sphaerotheca fuliginea; assay: Example M: in vivo preventive test on Sphaerotheca (cucumbers); comparison of phenoxy-pyridyl compounds vs. known phenoxy-phenyl compounds; settings: Podosphaera fuliginea, 168 h, rate of application 10 ppm, evaluated 7 days after inoculation, read-out: Efficacy in %
Experimental: Example M: In Vivo Preventive Test on Sphaerotheca (Cucumbers); Comparison of Phenoxy-pyridyl Compounds According to the Invention Vs. Known Phenoxy-phenyl Compounds [table] To produce a suitable preparation of active compound, 1 part by weight of active compound is mixed with the above stated amounts of solvent and emulsifier, and the concentrate is diluted with water to the desired concentration. To test for preventive activity, young plants are sprayed with the preparation of active compound at the stated rate of application. After the spray coating has dried on, the plants are inoculated with an aqueous spore suspension of Sphaerotheca fuliginea. The plants are then placed in a greenhouse at approximately 23° C. and a relative atmospheric humidity of approximately 70%. The test is evaluated 7 days after the inoculation. 0% means an efficacy which corresponds to that of the untreated control, while an efficacy of 100% means that no disease is observed. [table]

SMILES	pest or weed control at 10 ppm [%]
CC(O)(Cn1cncn1)c1ccc(Oc2ccc(Cl)cc2)cc1C(F)(F)F (stereo not drawn) [reference compound]	30

system: Sphaerotheca fuliginea; assay: Example D: in vivo preventive test on Sphaerotheca fuliginea (powdery mildew on cucurbits); settings: Podosphaera fuliginea, 360 h; 500 ppm of active ingredient; gherkin plants, preventive spray; evaluated 15 days after inoculation; read-out: efficacy
Experimental: Example D: In Vivo Preventive Test on Sphaerotheca fuliginea (Powdery Mildew on Cucurbits) [table] The active ingredients are made soluble and homogenized in a mixture of Dimethyl sulfoxide/Acetone//Tween® 80 and then diluted in water to the desired concentration. The young plants of gherkin are treated by spraying the active ingredient prepared as described above. Control plants are treated only with an aqueous solution of Acetone/Dimethyl sulfoxide/Tween® 80. After 24 hours, the plants are contaminated by spraying the leaves with an aqueous suspension of Sphaerotheca fuliginea spores. The contaminated gherkin plants are incubated for 72 hours at 18° C. and at 100% relative humidity and then for 12 days at 20° C. and at 70-80% relative humidity. The test is evaluated 15 days after the inoculation. 0% means an efficacy which corresponds to that of the control plants while an efficacy of 100% means that no disease is observed.

SMILES	pest or weed control at 500 ppm [%]
OC(Cn1cncn1)c1cnc(Oc2ccc(Cl)cc2)cc1C(F)(F)F (stereo not drawn) [I.04, 1-[6-(4-chlorophenoxy)-4-(trifluoromethyl)-3-pyridyl]-2-(1,2,4-triazol-1-yl)ethanol]	90 to 100
O=C(Cn1cncn1)c1cnc(Oc2ccc(Cl)cc2)cc1C(F)(F)F [VII.02, 1-[6-(4-chlorophenoxy)-4-(trifluoromethyl)-3-pyridyl]-2-(1,2,4-triazol-1-yl)ethanone]	90 to 100

system: Puccinia recondita; assay: Example B: in vivo preventive test on Puccinia recondita (brown rust on wheat); settings: 264 h, 500 ppm of active ingredient, wheat plants, preventive spray, evaluated 11 days after inoculation, read-out: efficacy
Experimental: as §1, with “B:” for “E:”, “Puccinia recondita (Brown Rust on Wheat)” for “Uromyces appendiculatus (Bean Rust)”, “wheat” for “bean”, “Puccinia recondita” for “Uromyces appendiculatus”

SMILES	pest or weed control at 500 ppm [%]
OC(Cn1cncn1)c1cnc(Oc2ccc(Cl)cc2)cc1C(F)(F)F (stereo not drawn) [I.04, 1-[6-(4-chlorophenoxy)-4-(trifluoromethyl)-3-pyridyl]-2-(1,2,4-triazol-1-yl)ethanol]	90 to 100
O=C(Cn1cncn1)c1cnc(Oc2ccc(Cl)cc2)cc1C(F)(F)F [VII.02, 1-[6-(4-chlorophenoxy)-4-(trifluoromethyl)-3-pyridyl]-2-(1,2,4-triazol-1-yl)ethanone]	90 to 100
